Data: publication PMC5054432 (Scientific Reports, 2016)
Several values for one entry are separate records, joined by “and”; a condition that tells them apart may be missing. Equal values may be shown once.

Columns and labels:
[1] = target: T1, wt GluN1/GluN2B receptors (UniProt P35439+Q01097); test: MK-801 inhibition kinetics (index of channel open probability), TEVC in oocytes; format: cell-based, rat GluN1-1a, mouse GluN2B; conditions: 50 nM MK-801, normalized to mean τon of wt
Description: (§1) To analyze the gating property change, we assessed channel maximal open probability (Po) using MK-801, a specific open-pore blocker of NMDARs[25]. Because the rate at which MK-801 inhibits the macroscopic NMDAR responses is proportional to the level of channel activity (i.e. Po), this MK-801 assay is classically used to index NMDAR channel activity.
(§2) For all experiments, the standard external solutions contained: 100 mM NaCl, […] BaCl2, and 5 mM HEPES, pH adjusted to 7.3 with KOH. […] Currents were recorded and measured at a holding potential of −60 mV at room temperature.
(§3) The measurements at 30 μM were corrected by multiply with a correcting value to remove the pore blocking effect at −60 mV[49]. Zinc was prepared at 100 mM ZnCl2 stock (in 1% HCl). In all zero-Zn^2+ control solutions, diethylenetriamine-pentaacetic acid (DTPA, 10 μM) was added to chelate trace Zn^2+ and other heavy metals. Spermine potentiation was analyzed as described earlier. Solutions of 200 μM spermine (Sigma-Aldrich) were made by directly diluting the powder into the standard agonist solution. Spermine sensitivity was assessed at pH 6.5 in order to maximize the spermine-induced potentiation. Experiments with MK-801 were performed as described previously. […] Each τon was then normalized to the mean τon of wt receptors measured the same day. […]

[2] = target: T2, GluN1/GluN2B-F114AzF receptors (Rattus norvegicus (GluN1-1a); Mus musculus (GluN2B), UniProt P35439+Q01097); test: as above; format: cell-based, rat GluN1-1a, mouse GluN2B; set-up: expressed in transfected cells; host or cells: Xenopus laevis oocytes co-injected with GluN1, GluN2B amber mutant, Yam suppressor tRNA and AzF-RS, incubated with 1 mM AzF; conditions: 50 nM MK-801, normalized to mean τon of wt
T2 sequence (Q01097 27-1482, other chains not shown): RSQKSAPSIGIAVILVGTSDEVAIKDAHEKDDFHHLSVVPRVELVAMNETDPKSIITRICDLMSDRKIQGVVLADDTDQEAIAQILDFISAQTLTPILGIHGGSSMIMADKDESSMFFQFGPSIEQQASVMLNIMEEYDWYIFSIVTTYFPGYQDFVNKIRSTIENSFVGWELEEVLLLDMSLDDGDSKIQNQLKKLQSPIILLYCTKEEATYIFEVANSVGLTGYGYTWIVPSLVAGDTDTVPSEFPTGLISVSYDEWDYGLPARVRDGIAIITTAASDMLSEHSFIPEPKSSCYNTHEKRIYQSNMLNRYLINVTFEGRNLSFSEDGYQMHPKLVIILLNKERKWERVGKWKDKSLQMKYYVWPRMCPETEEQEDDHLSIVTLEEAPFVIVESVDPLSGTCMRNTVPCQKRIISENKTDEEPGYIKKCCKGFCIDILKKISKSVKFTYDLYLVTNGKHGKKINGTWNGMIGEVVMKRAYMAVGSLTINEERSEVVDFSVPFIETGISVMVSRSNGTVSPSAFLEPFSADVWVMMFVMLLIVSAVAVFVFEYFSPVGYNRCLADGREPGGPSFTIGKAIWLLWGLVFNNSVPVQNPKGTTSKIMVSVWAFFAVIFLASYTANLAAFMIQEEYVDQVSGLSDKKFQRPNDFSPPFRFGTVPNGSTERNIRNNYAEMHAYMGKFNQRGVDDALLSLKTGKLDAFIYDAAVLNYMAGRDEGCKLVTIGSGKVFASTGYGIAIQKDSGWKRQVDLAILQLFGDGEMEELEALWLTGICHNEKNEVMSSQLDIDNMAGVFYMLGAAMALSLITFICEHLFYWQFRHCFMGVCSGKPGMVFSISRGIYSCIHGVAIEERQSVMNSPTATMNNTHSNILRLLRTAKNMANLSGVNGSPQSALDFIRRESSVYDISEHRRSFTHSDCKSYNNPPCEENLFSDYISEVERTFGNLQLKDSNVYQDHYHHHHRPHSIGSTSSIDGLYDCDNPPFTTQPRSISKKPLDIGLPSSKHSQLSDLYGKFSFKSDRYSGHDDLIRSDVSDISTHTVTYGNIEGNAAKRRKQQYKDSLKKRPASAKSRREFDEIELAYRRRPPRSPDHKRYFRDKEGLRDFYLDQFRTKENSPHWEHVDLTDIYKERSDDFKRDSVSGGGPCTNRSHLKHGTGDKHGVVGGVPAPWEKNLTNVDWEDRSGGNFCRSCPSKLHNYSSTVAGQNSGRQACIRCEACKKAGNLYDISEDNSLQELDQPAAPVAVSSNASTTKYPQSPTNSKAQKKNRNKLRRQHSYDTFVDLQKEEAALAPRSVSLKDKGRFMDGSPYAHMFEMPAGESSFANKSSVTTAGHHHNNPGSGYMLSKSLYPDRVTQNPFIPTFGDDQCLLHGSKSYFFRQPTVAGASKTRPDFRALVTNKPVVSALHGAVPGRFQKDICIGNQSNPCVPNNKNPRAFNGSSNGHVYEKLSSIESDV
Description: as §1, §2, §3

[3] = target: T1, wt GluN1/GluN2B receptors; test: Ifenprodil and Zn2+ inhibition dose-response, TEVC in Xenopus laevis oocytes; format: cell-based, rat GluN1-1a, mouse GluN2B
Description: (§4) Oocytes were prepared and injected as described previously. Recombinant NMDARs were expressed in Xenopus laevis oocytes after nuclear injection of 36 nl of a mixture cDNAs encoding various GluN1 and GluN2 subunits (ratio 1:1, 10 ng/μl for GluN2A and 30 ng/μl for GluN2B). For Uaa incorporation, oocytes were co-injected with a 36 nl mixture of cDNAs containing GluN1, GluN2, Yam, and aaRS as follows, unless otherwise indicated in the text: GluN1-wt (60 ng/μl), GluN2A-F115AzF (60 ng/μl), Yam (5 ng/μl), AzF-RS (2.5 ng/μl); or, GluN1-wt (80 ng/μl), GluN2B-F114AzF (80 ng/μl), Yam (10 ng/μl), AzF-RS (5 ng/μl). After injection, oocytes were incubated at 19 °C in a Barth solution (88 mM NaCl, 1 mM KCl, 0.33 mM Ca(NO3)2, 0.41 mM CaCl2, 0.82 mM MgSO4, 2.4 mM NaHCO3, 10 mM HEPES, pH adjusted to 7.6 with NaOH) supplemented with gentamicin sulfate ([…]) and D-APV (50 μM). AzF was dissolved with sonication in Barth solution (stock solution at 10 mM), and diluted (1 mM) for oocytes incubation.
as §2
(§5) The measurements at 30 μM were corrected by multiply with a correcting value to remove the pore blocking effect at −60 mV[49]. Zinc was prepared at 100 mM ZnCl2 stock (in 1% HCl). In all zero-Zn^2+ control solutions, diethylenetriamine-pentaacetic acid (DTPA, 10 μM) was added to chelate trace Zn^2+ and other heavy metals. Spermine potentiation was analyzed as described earlier. Solutions of 200 μM spermine (Sigma-Aldrich) were made by directly diluting the powder into the standard agonist solution. Spermine sensitivity was assessed at pH 6.5 in order to maximize the spermine-induced potentiation. Experiments with MK-801 were performed as described previously. MK-801 solutions (10–50 nM) were prepared by dilution of stock solution (50 μM) into agonist containing solution[4]. MK-801 time constants of inhibition (τon) were obtained by fitting currents with a single-exponential component to a time window corresponding to 10–90% of maximum inhibition. Each τon was then normalized to the mean τon of wt receptors measured the same day.
(§6) For all functional recordings in Xenopus oocytes, online UV light treatment with PE-2 light source (CoolLED) using a 365 nm filter channeled through optical fiber was directly applied to the dark hemisphere of the oocytes in the recording chamber. […] For measurements in presence of agonists and allosteric modulators, the UV application duration was ~3 min. In the absence of agonist, the UV application duration was ~5 min.

[4] = target: T2, GluN1/GluN2B-F114AzF receptors; test: UV-induced current potentiation in the presence of allosteric modulators, TEVC in oocytes; format: cell-based, rat GluN1-1a, mouse GluN2B; set-up: expressed in transfected cells; host or cells: Xenopus laevis oocytes co-injected with GluN1, GluN2B amber mutant, Yam suppressor tRNA and AzF-RS, incubated with 1 mM AzF
Source text: To evaluate whether AzF photo-activation in GluN2B produces functional changes, we applied a time-resolved assay[10] by combining online application of UV light and simultaneously recording of agonist-induced currents using TEVC. Current after UV illumination (Iuv) were compared to currents before UV illumination (Io) and yielded the relative current changes (Iuv/Io).
To understand how the NTD dimer interfacial contact influences allosteric modulation, we have quantified UV-induced potentiation in the presence of different modulators, including a GluN2B specific positive allosteric modulator spermine.
as §2, §5, §6

[5] = target: T2, GluN1/GluN2B-F114AzF receptors; test: Ifenprodil and Zn2+ inhibition dose-response, TEVC in Xenopus laevis oocytes; format: cell-based; conditions: for IC50 / Zn2+ Hill coefficient nH: F114AzF mutant
Description: as §4, §2, §5, §6

[6] = target: T2, GluN1/GluN2B-F114AzF receptors; conditions: 200 μM spermine, pH 6.5, without UV
Description: For all experiments, the standard external solutions contained: 100 mM NaCl, 300 mM BaCl2, and 5 mM HEPES, pH adjusted to 7.3 with KOH. […] Currents were recorded and measured at a holding potential of −60 mV at room temperature.
The measurements at 30 μM were corrected by multiply with a correcting value to remove the pore blocking effect at −60 mV[49]. Zinc was prepared at 100 mM ZnCl2 stock (in 1% HCl). In all zero-Zn^2+ control solutions, diethylenetriamine-pentaacetic acid (DTPA, 10 μM) was added to chelate trace Zn^2+ and other heavy metals[25]. […] Experiments with MK-801 were performed as described previously. MK-801 solutions (10–50 nM) were prepared by dilution of stock solution (50 μM) into agonist containing solution[4]. MK-801 time constants of inhibition (τon) were obtained by fitting currents with a single-exponential component to a time window corresponding to 10–90% of maximum inhibition. Each τon was then normalized to the mean τon of wt receptors measured the same day.

wild-type GluN1 (rat) = wild-type GluN1 (rat) (UniProt P35439)

T1 sequence (Q01097 27-1482, other chains not shown): as above

For `C[C@]12N[C@H](Cc3ccccc31)c1ccccc12` [MK-801, (+)-MK-801], the “Relative MK-801 τon” value ([1]; wild-type with UV) was 0.90 ± 0.06, the “Relative MK-801 τon” value ([1]; wild-type without UV) was 1.00 and the “Relative MK-801 τon” value ([2]; F114AzF mutant with UV) was 0.80 ± 0.07. For the same compound, the “Relative MK-801 τon” value ([2]; F114AzF mutant without UV) was 1.81 ± 0.47.
With `[Cl-].[Cl-].[Zn+2]` [Zn^2+, ZnCl2] the IC50 ([3]; after UV) was 720 ± 120 nM, the “Zn2+ Hill coefficient nH” value ([3]; after UV) was 0.78 and the IC50 ([3]; before UV) was 580 ± 130 nM. For the same compound, the “Zn2+ Hill coefficient nH” value ([3]; before UV) was 0.59, the “Relative current (I+uv/I0) after wash-off of modulator” value ([4]; 10 μM Zn2+ with co-agonists, +UV (~3 min, 365 nm)) was 1.40 ± 0.43 and the “Relative current (I/I0) after wash-off of modulator” value ([4]; 10 μM Zn2+ with co-agonists, -UV) was 0.92 ± 0.29. For the same compound, the “Maximal inhibition (%)” value ([5]; 0.1uM inhibitor, +UV) was 16 ± 7%, the “Maximal inhibition (%)” value ([5]; 0.1uM inhibitor, -UV) was 25 ± 8% and the “Maximal inhibition (%)” value ([5]; 1uM inhibitor, +UV) was 35 ± 4%. For the same compound, the “Maximal inhibition (%)” value ([5]; 1uM inhibitor, -UV) was 49 ± 11%, the “Maximal inhibition (%)” value ([5]; 10uM inhibitor, +UV) was 83 ± 1% and the “Maximal inhibition (%)” value ([5]; 10uM inhibitor, -UV) was 87 ± 4%. For the same compound, the “Change in Zn2+ maximal inhibition” value ([5]; F114AzF mutant before and after UV versus wt) was “no change”, the IC50 ([5]; after UV) was 1720 ± 600 nM and the “Zn2+ Hill coefficient nH” value ([5]; after UV) was 0.77. The IC50 ([5]; before UV) was 780 ± 250 nM and the “Zn2+ Hill coefficient nH” value ([5]; before UV) was 0.62.
In the case of `CC(C(O)c1ccc(O)cc1)N1CCC(Cc2ccccc2)CC1` (centres unmarked) [ifenprodil], the “Ifenprodil Hill coefficient nH” value [3] is reported as 1.14, the “Effect on UV potentiation” value ([4]; in the presence of ifenprodil) is reported as “completely abolished” and the Ifenprodil maximal inhibition [5] is reported as 77% and 67%. The “Maximal inhibition (%)” value ([5]; 0.1 µM) was 16 ± 3% and 9 ± 4 %, the “Maximal inhibition (%)” value ([5]; 1 µM) was 54 ± 4% and 35 ± 4 % and the “Maximal inhibition (%)” value ([5]; 10 µM) was 77 ± 3% and 55 ± 3 %.
For `NCCCNCCCCNCCCN` [spermine], the “Relative current (I+uv/I0)” value ([4]; 200 μM spermine, pH 6.5, +UV (~3 min, 365 nm)) was 2.80 ± 0.64, the “Relative current (I/I0)” value ([4]; 200 μM spermine, pH 6.5, -UV) was 0.85 ± 0.10 and the “τon of UV induced additional potentiation” value ([4]; in the presence of 200 μM spermine, pH 6.5) was 50.8 s. The “Spermine potentiation of receptor activation” value [6] was 4.6 fold.
Compound “GluN2B-F114AzF (from UniProt Q01097 27-1482) (receptor)” has a relative current Iuv/Io after UV illumination of maximally activated receptors (TEVC in oocytes, UV-induced potentiation) (wild-type GluN1 (rat)) of 1.97.
